Like-named read-outs stand apart in the source and are kept apart here. Values belong to the compound of their own block, whether it stands above or below them.
Assays:
human BCRP [1] = biological target: T1, human BCRP (Homo sapiens, UniProt Q9UNQ0); details: BCRP vesicles; for increase in maximal LY uptake by BCRP: 0.1% BSA vs no BSA; for Km: cholesterol loaded, best fit value (± standard error)
T1 sequence (Q9UNQ0 1-655): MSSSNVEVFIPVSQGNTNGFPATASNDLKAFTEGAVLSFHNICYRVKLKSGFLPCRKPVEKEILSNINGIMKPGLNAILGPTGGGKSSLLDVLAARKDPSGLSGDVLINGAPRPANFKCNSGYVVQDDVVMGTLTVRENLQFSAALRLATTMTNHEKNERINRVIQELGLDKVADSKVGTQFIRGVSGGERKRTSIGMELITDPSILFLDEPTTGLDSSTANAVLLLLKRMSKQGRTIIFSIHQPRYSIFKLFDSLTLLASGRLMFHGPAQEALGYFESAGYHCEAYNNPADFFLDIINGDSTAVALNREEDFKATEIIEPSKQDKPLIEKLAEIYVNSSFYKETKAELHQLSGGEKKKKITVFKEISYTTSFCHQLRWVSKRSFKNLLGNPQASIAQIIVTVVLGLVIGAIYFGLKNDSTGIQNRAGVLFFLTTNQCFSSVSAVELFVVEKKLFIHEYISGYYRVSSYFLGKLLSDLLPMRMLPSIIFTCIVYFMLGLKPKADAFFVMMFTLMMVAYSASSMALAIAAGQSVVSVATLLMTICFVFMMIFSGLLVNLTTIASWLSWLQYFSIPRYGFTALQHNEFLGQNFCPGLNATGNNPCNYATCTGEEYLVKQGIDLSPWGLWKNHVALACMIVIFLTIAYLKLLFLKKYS
Protocol: Sf9 cells were cultured in suspension in HyQ SFX-Insect MP medium (Thermo Fisher Scientific, Waltham, MA) supplemented with 5% fetal bovine serum. Cells were infected with recombinant baculovirus-DNA and harvested and washed with phosphate buffered saline (PBS) approximately 60 hours after infection. Membranes were prepared from the cells using a modification of the Chu et al. [30] method as described in detail in [29]. To form the vesicles, the suspension was passed 10 times through a LIPEX™ Extruder (Northern Lipids Inc., Burnaby, BC, Canada) or 20 times through a 27 gauge needle. Protein concentration was measured using the Bio-Rad protein assay (Bio-Rad Laboratories Inc., Hercules, CA). Vesicles were stored at -75°C at protein concentrations of 3.5–5 mg/ml.
To improve the dynamic range of the assay, BCRP membranes were loaded with cholesterol similarly to Telbisz et al. [31], by incubating the membranes on ice for 20 minutes in the presence of the water-soluble cholesterol complex at a total concentration of 2.5 mM cholesterol. Excess of the complex was removed by diluting the mixture and centrifugation at 100 000 g at + 4°C for 1 h 15 min. The remaining membrane pellet was resuspended in membrane buffer (50 mM Tris–HCl pH 7.0, 50 mM mannitol, 2 mM EGTA). The resulting cholesterol concentration in the vesicles was roughly 100 μg/mg total protein as measured using the Amplex Red Cholesterol kit (Life Technologies, Carlsbad, CA).
The assay was carried out as a modification of the PREDIVEZ™ Vesicular Transport Kit protocol (SOLVO Biotechnology, Szeged, Hungary). In short, vesicle stocks were thawed and diluted with assay buffer (40 mM MOPS–Tris pH 7.0, 60 mM KCl, 6 mM MgCl2). The substrate at various concentrations was added subsequently with 0.1% or 1.0% BSA (w/v), or an equivalent volume of deionized water for the control. […] The well plate was preincubated at 37°C for 5–10 minutes after which half of the samples were treated with prewarmed plain assay buffer (non-ATP control), and the other half with prewarmed Mg-ATP-solution (final concentration 4 mM). […] Transport was terminated with ice cold washing buffer (40 mM MOPS-Tris pH 7.0 and 70 mM KCl). Samples were quickly transferred to the MultiScreenHTS-FB Plate Glass fiber 1.0 μm / 0.65 μm Durapore filter plate (Millipore, Molsheim, France). Wells were immediately washed five times with 200 μl washing buffer and dried. 0.1 M sodium hydroxide was used to elute LY and CDCF, which were detected by fluorescence measurement.
ATP-dependent transport was calculated as the difference between uptake in the presence and absence of ATP. All assays were performed in triplicates on a 96-well plate. Curve fitting to the data was performed with GraphPad Prism 6.04 (GraphPad Software Inc., La Jolla, CA). Substrate data was fitted with the Michaelis-Menten equation v=Vmax[S]/Km+[S] (1) where v is the velocity of ATP-dependent transport, Vmax is the maximal transport velocity, [S] is the substrate concentration and Km is the Michaelis-Menten constant.

[2] = biological target: T2, bovine serum albumin (BSA) (Bos taurus, UniProt P02769); test: Substrate binding to BSA, rapid equilibrium dialysis (RED); assay type: in vitro ADME; details: for fu (± SD): 37°C, 7 h, n = 3
T2 construct: purchased Sigma-Aldrich (St. Louis, MO)
T2 sequence (P02769 25-607): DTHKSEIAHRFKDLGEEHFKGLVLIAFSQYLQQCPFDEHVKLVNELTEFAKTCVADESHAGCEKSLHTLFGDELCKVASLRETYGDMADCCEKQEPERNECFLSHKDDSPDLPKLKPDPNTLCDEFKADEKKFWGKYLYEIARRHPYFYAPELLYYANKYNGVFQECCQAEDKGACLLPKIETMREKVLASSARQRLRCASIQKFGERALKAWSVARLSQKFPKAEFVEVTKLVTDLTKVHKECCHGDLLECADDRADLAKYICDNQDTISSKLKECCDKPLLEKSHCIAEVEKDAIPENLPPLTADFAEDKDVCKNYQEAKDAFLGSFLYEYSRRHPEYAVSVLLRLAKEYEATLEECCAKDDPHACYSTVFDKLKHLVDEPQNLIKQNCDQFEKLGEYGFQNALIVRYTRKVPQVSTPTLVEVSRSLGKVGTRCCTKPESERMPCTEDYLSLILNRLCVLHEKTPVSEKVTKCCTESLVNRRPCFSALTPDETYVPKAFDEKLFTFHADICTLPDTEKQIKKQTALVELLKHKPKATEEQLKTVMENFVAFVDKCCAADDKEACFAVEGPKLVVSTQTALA
Excerpt: The fraction of unbound substrate in the presence of BSA was studied with the rapid equilibrium dialysis (RED) device (Thermo Scientific, Waltham, MA). In the RED system, two chambers in a well are separated with dialysis membrane. The transporter substrate (CDCF, E217βG or LY) was placed in the donor chamber in assay buffer with control membrane vesicles in the presence or absence of BSA to mimic the VT assay conditions. The final concentrations of BSA was 0.1% or 1.0%. Plain assay buffer was pipetted into the receiver chambers of all wells until the liquid level of both chambers was equal. […] Samples were incubated at 37°C on an orbital shaker. After 7 hour incubation, a small aliquot was collected from each receiver chamber for analysis. The relative fraction of unbound substrate (fu) was calculated as the ratio of concentrations in the receiver chambers from the samples with and without BSA.
Acetonitrile and phosphate buffers were used as mobile phase and flow rate was 0.5 ml/min.

[3] = test system: CYPs, human liver microsomes; design: method as in PMID 18256202, PMID 21305272; details: cited from earlier work
human MRP2 [4] = biological target: T3, human MRP2 (Homo sapiens, UniProt Q92887)
T3 sequence (Q92887 whole entry): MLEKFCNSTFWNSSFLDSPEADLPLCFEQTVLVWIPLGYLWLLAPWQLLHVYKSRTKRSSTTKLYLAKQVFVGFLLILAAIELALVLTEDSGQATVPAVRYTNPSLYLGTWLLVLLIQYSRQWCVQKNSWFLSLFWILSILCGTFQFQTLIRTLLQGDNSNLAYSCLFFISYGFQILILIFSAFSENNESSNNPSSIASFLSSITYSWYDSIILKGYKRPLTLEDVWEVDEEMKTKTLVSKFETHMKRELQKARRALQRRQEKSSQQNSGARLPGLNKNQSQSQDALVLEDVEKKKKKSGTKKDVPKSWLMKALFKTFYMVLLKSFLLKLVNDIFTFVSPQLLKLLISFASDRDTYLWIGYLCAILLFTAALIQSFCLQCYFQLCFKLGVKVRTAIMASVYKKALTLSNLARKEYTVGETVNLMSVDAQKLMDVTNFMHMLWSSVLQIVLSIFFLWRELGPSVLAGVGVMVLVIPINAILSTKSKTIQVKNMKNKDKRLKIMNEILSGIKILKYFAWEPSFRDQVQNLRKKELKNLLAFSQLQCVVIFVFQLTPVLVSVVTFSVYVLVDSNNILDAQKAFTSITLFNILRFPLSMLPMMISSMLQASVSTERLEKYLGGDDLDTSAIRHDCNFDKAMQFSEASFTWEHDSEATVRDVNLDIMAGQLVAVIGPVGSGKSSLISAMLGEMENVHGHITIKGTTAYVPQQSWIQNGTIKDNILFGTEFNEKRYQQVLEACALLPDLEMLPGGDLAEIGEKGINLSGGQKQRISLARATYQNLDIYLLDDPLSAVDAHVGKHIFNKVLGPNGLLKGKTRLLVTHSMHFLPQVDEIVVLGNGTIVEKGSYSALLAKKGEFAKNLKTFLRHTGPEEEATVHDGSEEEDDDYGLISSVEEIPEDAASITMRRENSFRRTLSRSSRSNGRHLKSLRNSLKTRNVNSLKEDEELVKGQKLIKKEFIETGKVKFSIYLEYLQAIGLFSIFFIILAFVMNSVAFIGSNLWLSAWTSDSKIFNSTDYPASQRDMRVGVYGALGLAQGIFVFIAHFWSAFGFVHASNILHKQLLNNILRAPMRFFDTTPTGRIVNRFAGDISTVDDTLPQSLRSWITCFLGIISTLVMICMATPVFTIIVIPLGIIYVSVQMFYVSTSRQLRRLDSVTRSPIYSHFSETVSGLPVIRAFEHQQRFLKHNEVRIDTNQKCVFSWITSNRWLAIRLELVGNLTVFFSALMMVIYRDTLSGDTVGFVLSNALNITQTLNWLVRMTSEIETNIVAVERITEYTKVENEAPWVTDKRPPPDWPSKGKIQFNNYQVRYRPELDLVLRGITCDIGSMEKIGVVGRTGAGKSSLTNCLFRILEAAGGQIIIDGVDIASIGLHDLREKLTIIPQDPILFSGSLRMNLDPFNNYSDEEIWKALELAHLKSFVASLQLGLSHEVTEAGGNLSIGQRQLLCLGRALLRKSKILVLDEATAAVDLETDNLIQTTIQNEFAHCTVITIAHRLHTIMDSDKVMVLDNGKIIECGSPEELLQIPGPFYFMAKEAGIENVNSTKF
Excerpt: v=Vmax[S]^h/Km^h+[S]^h (2)

UGT2B7 = details: cited from earlier work
UGT2A1 = test system: UGT2A1; design: method as in PMID 23372764; details: cited from earlier work
UGT1A7 = test system: UGT1A7; design: method as in PMID 23372764; details: cited from earlier work
BCRP [5] = test system: BCRP; design: method as in PMID 22819932; details: Caco-2 cells, oleic acid > 1 mM; cited from earlier work
BCRP [6] = test system: BCRP; design: method as in PMID 24342797; details: sandwich-cultured hepatocytes, oleic acid > 1 mM; cited from earlier work
human BCRP [7] = biological target: T1, human BCRP; test: Inhibition of LY uptake into BCRP vesicles by oleic acid (VT assay)
Protocol: (§1) The modulation of MRP2 and BCRP uptake by fatty acid oleic acid was also studied with the VT assay. The assay was performed as above, but oleic acid was present at various concentrations. The probe concentration in these studies was 5 μM for CDCF and 50 μM for LY. Plain vehicle (70% ethanol) was used as a control.
(§2) The oleic acid concentration required for 50% inhibition (IC50), was calculated from the concentration-response data using four parameter logistic regression, Response=Responsemin+Responsemax−Responsemin/1+([I]/IC50)^h (3) where response is the control normalized ATP-dependent uptake (%), Responsemin and Responsemax represent the plateaus corresponding to minimal and maximal normalized uptake (%), [I] is the concentration of inhibitor (μM), IC50 is the inhibitor concentration required for a response half-way between minimal and maximal response (μM) and h is the Hill coefficient. The Responsemin term was constrained to be larger than zero, where zero indicates full abolishment of uptake.

human MRP2 [8] = biological target: T3, human MRP2; test: Inhibition of CDCF uptake into MRP2 vesicles by oleic acid (VT assay); details: 5 μM CDCF
Protocol: as §1, §2

[9] = MRP2 vesicles, 0.1% BSA vs no BSA

Compound: Lucifer yellow [LY]
increase in maximal LY uptake by BCRP (human BCRP [1]): 28%
increase in maximal LY uptake by BCRP (human BCRP [1]; listed as Lucifer yellow): 30%
Vmax in the presence of 0.1% BSA (human BCRP [1]; Vmax in the absence of BSA set at 100%): 127.5 (± 6.2) %
Km (human BCRP [1]; read-out: Km with 0.1% BSA, 0.1% BSA): 33.5 µM
Km (human BCRP [1]; read-out: Km without BSA): 31.2 µM
fu (± SD) ([2]; 0.1% BSA, substrate 20 μM): 0.98 (± 0.01)
fu (± SD) ([2]; 0.1% BSA, substrate 200 μM): 0.98 (± 0.03)

Compound: O=C1NC(=O)C(c2ccccc2)(c2ccccc2)N1 [phenytoin]
decrease in Km of hydroxylation caused by albumin [3]: 4 fold

increase of Km by BSA (human MRP2 [4]; [9]): 36%
fu (± SD) ([2]; 0.1% BSA, substrate 15 μM): 0.96 (± 0.04)
fu (± SD) ([2]; 0.1% BSA, substrate 50 μM): 1.00 (± 0.03)
fu (± SD) ([2]; 0.1% BSA, substrate 150 μM): 0.98 (± 0.04)
Compound: C[C@]12CC[C@@H]3c4ccc(O)cc4CC[C@H]3[C@@H]1CC[C@@H]2O[C@@H]1O[C@H](C(=O)O)[C@@H](O)[C@H](O)[C@H]1O [E217βG]

Compound: Nc1nnc(-c2cccc(Cl)c2Cl)c(N)n1 [lamotrigine]
increase in affinity caused by albumin (UGT2B7): 7 fold

increase of Vmax of uptake into MRP2 vesicles (human MRP2 [4]; 0.1% BSA vs no BSA): 2 fold
increase of Km by BSA (human MRP2 [4]; [9]): ~63%
increase of Vmax by BSA (human MRP2 [4]; [9]): roughly 110%
Vmax in the presence of 0.1% BSA (human MRP2 [4]; MRP2 vesicles, Vmax in the absence of BSA set at 100%): 210.4 (± 21.1) %
average fu ([2]; 0.1% BSA, average over concentrations): 0.94
fu (± SD) ([2]; 0.1% BSA, substrate 1 μM): 0.92 (± 0.02)
fu (± SD) ([2]; 0.1% BSA, substrate 5 μM): 0.94 (± 0.02)
fu (± SD) ([2]; 0.1% BSA, substrate 50 μM): 0.96 (± 0.01)
fu (± SD) ([2]; 1.0% BSA, substrate 5 μM): 0.43 (± 0.02)
fu (± SD) ([2]; 1.0% BSA, substrate 50 μM): 0.53 (± 0.02)
fu (± SD) ([2]; 1.0% BSA, substrate 200 μM): 0.73 (± 0.03)
Compound: 5(6)-carboxy-2’,7’-dichlorofluorescein [CDCF]

Compound: Cc1cn([C@H]2C[C@H](N=[N+]=[N-])[C@@H](CO)O2)c(=O)[nH]c1=O [zidovudine]
increase in affinity caused by albumin (UGT2B7): 10 fold

Compound: Oc1ccc2cc[nH]c2c1 [6-hydroxyindole]
decrease in Km caused by albumin (UGT2A1): > 20 fold

Compound: CCN(CC)C(=O)/C(C#N)=C/c1cc(O)c(O)c([N+](=O)[O-])c1 [entacapone]
increase in Vmax caused by albumin (UGT1A7): up to 7 fold

IC50 (human BCRP [7]): 28.2 µM
effect on substrate uptake (human MRP2 [8]): decreased the uptake of substrates
Compound: CCCCCCCC/C=C\CCCCCCCC(=O)O [oleic acid]
effect on BCRP-mediated transport of mitoxantrone (BCRP [5]): decrease BCRP-mediated transport of mitoxantrone
effect on BCRP-mediated transport of rosuvastatin (BCRP [6]): decrease BCRP-mediated transport

Compound: CC(=O)O[C@H]1C(=O)[C@@]2(C)[C@H]([C@H](OC(=O)c3ccccc3)[C@]3(O)C[C@H](OC(=O)[C@H](O)[C@@H](NC(=O)c4ccccc4)c4ccccc4)C(C)=C1C3(C)C)[C@]1(OC(C)=O)CO[C@@H]1C[C@@H]2O [paclitaxel]
decrease in Km of hydroxylation caused by albumin [3]: 3 fold

From PMC5051865, “The Effect of Albumin on MRP2 and BCRP in the Vesicular Transport Assay” (PLoS ONE, 2016)
